Experimental findings from patent US11865111B2, “Antiviral drugs targeting the N-terminal domain (NTD) of the coronavirus spike receptor binding domain (RBD)” (priority 2021, dated 2024) are described below.

Like-named read-outs stand apart in the source and are kept apart here.

Series [1] can be described thus: in vitro. Conditions: African green monkey.
For series [2], the system named is SARS-CoV-2 (USA-WA1/2020). Nature of the series: microbe, parasite or virus in culture. Format: cell-based. Conditions: for SI (selectivity index=CC50/EC50): CC50/EC50, against the SARS-CoV-2 strain.
[3] abbreviates: Severe acute respiratory syndrome coronavirus 2, Vero C1008, 32 h, read-out: EC50.
Setting [4] is: Severe acute respiratory syndrome coronavirus 2, Vero C1008, 32 h, read-out: EC90.
The mark [5] stands for this setting: Severe acute respiratory syndrome coronavirus 2, Vero C1008, against the SARS-CoV-2 strain, read-out: EC90 value.

For `CCOc1cc(CN2CCC(C(=O)Nc3cccc(-c4cccc(F)c4)c3)CC2)ccc1O` [Compound 4, 1-(3-ethoxy-4-hydroxybenzyl)-N-(3′-fluoro-[1,1′-biphenyl]-3-yl)piperidine-4-carboxamide], in series [1], the CC50 is above 30 µM. Moreover, the “SI (selectivity index=CC50/EC50)” value in series [2] is recorded as above 4.92. The concentration giving a half-maximal response (EC50) (commonly the concentration at which the effect is half-maximal) in series [2] (setting [3]) was found to be 6.1 µM. Besides, the EC90 (usually the concentration at which the effect reaches the 90% level) in series [2] (setting [4]) was 10.1 µM.
Molecule `O=C(Nc1cccc(-c2cccc(Cl)c2)c1)C1CCN(Cc2ccc(O)cc2)CC1` [Compound 7, N-(3′-chloro-[1,1′-biphenyl]-3-yl)-1-(4-hydroxybenzyl)piperidine-4-carboxamide] registered a CC50 in series [1] of 21 µM. For the same molecule, in series [2], the “SI (selectivity index=CC50/EC50)” value is listed as 3.36. Moreover, the EC50 in series [2] (setting [3]) is 6.4 µM. In addition, the concentration for an effect of 90% (EC90) in series [2] (setting [4]) came to 11 µM.
`CCOc1cc(CN2CCC(C(=O)Nc3cccc(-c4cccc(C(F)(F)F)c4)c3)CC2)ccc1O` [Compound 5, 1-(3-ethoxy-4-hydroxybenzyl)-N-(3′-(trifluoromethyl)-[1,1′-biphenyl]-3-yl)piperidine-4-carboxamide]: the CC50 in series [1] came to 15.6 µM. In addition, the “SI (selectivity index=CC50/EC50)” value in series [2] is given as 3.20. Also, the EC50 in series [2] (setting [3]) stood at 4.91 µM. Besides, the EC90 in series [2] (setting [4]) was determined as 7.47 µM.
In the same order, the values of `COC(=O)c1cccc(CNCc2cccc(-c3csc(-c4nc5ccccc5[nH]4)c3)c2)c1` [Compound 1, methyl 3-(((3-(5-(1H-benzo[d]imidazol-2-yl)thiophen-3-yl)benzyl)amino)methyl)benzoate] are above 30 µM, above 5.30, 5.66 µM and 9.5 µM.
`CCOc1cc(CN2CCC(C(=O)Nc3cccc(-c4cccc(OC)c4)c3)CC2)ccc1O` [Compound 6, 1-(3-ethoxy-4-hydroxybenzyl)-N-(3′-methoxy-[1,1′-biphenyl]-3-yl)piperidine-4-carboxamide]: the CC50 in series [1] stood at 26.3 µM. In series [2], the “SI (selectivity index=CC50/EC50)” value is on record as 3.70. Further, in series [2] (setting [3]), the EC50 turned out to be 7.16 µM. Further, in series [2] (setting [4]), the concentration for an effect of 90% (EC90) was determined as 11.5 µM.
In the case of `CCOc1cc(CN2CCC(C(=O)Nc3cccc(-c4ccc(Cl)cc4)c3)CC2)ccc1O` [Compound 10, N-(4′-chloro-[1,1′-biphenyl]-3-yl)-1-(3-ethoxy-4-hydroxybenzyl)piperidine-4-carboxamide], the CC50 in series [1] worked out at 16 µM. Besides, in series [2], the “SI (selectivity index=CC50/EC50)” value came to 2.65. The 50% effective concentration (EC50) in series [2] (setting [3]) worked out at 6.2 µM. In series [2] (setting [4]), the EC90 was 9.1 µM.
The matching figures for `CNC(=O)c1cccc(CNCc2cccc(-c3csc(-c4nc5ccccc5[nH]4)c3)c2)c1` [Compound 2, 3-(((3-(5-(1H-benzo[d]imidazol-2-yl)thiophen-3-yl)benzyl)amino)methyl)-N-methylbenzamide]: above 30 µM, above 4.04, 7.43 µM and 13.1 µM.
Take `COc1cc(C(=O)OCCCN2CCCN(CCCOC(=O)c3cc(OC)c(OC)c(OC)c3)CC2)cc(OC)c1OC` [Dilazep, 3-[4-[3-(3,4,5-trimethoxybenzoyl)oxypropyl]-1,4-diazepan-1-yl]propyl 3,4,5-trimethoxybenzoate, reference compound]: the CC50 in series [1] was above 30 µM. Also, the concentration giving a half-maximal response (EC50) in series [2] (Severe acute respiratory syndrome coronavirus 2, Vero C1008, against the SARS-CoV-2 strain, read-out: EC50 value) is 3.89 µM. Besides, the 90% effect concentration (EC90) in series [2] (setting [5]) was found to be 19.8 µM.
In turn, `O=C(NC1CCN(CCCCC2(C(=O)NCC(F)(F)F)c3ccccc3-c3ccccc32)CC1)c1ccccc1-c1ccc(C(F)(F)F)cc1` [N-(2,2,2-trifluoroethyl)-9-(4-(4-(4′-(trifluoromethyl)-[1,1′-biphenyl]-2-carboxamido)piperidin-1-yl)butyl)-9H-fluorene-9-carboxamide, reference compound] came in with a CC50 in series [1] of 9.56 µM. Moreover, the “SI (selectivity index=CC50/EC50)” value in series [2] was determined as 5.92. Moreover, in series [2] (Severe acute respiratory syndrome coronavirus 2, Vero C1008, against the SARS-CoV-2 strain, unit inferred, read-out: EC50 value), the EC50 came to 1.61 µM. Moreover, the EC90 in series [2] (setting [5]) stood at 2.83 µM.
In turn, `CCOc1cc(CN2CCC(C(=O)Nc3cccc(-c4cccc(Cl)c4)c3)CC2)ccc1O` [Compound 9, N-(3′-chloro-[1,1′-biphenyl]-3-yl)-1-(3-ethoxy-4-hydroxybenzyl)piperidine-4-carboxamide] gave a CC50 in series [1] of 16 µM. The “SI (selectivity index=CC50/EC50)” value in series [2] is recorded as 2.80. Further, the EC50 in series [2] (setting [3]) is 5.8 µM. In addition, the EC90 in series [2] (setting [4]) is 8.9 µM.
As to `COc1ccc(CN2CCC(C(=O)Nc3cccc(-c4cccc(Cl)c4)c3)CC2)cc1O` [Compound 8, N-(3′-chloro-[1,1′-biphenyl]-3-yl)-1-(3-hydroxy-4-methoxybenzyl)piperidine-4-carboxamide], the CC50 in series [1] turned out to be 17 µM. Also, the “SI (selectivity index=CC50/EC50)” value in series [2] was determined as 2.48. Besides, the EC50 in series [2] (setting [3]) came to 6.9 µM. For the same molecule, the EC90 in series [2] (setting [4]) came out at 11.7 µM.
The matching figures for `COC(=O)c1cccc(CNC(=O)c2cccc(-c3csc(-c4nc5ccccc5[nH]4)c3)c2)c1` [Compound 3, methyl 3-((3-(5-(1H-benzo[d]imidazol-2-yl)thiophen-3-yl)benzamido)methyl)benzoate]: above 30 µM, above 4.00, 7.5 µM and 12.6 µM.
